Data reported in patent US12044651B2, “Sensor device and methods” (SCENTIAN BIO LIMITED, priority 2016, dated 2024).

Assays:
OR35a = biological target: T1, OR35a (Drosophila melanogaster, UniProt Q9V3Q2); experiment: EIS sensor, Or35a liposomes on gold electrode (Example 1); format: binding; conditions: Or35a liposomes, EIS
T1 sequence (Q9V3Q2 1-409): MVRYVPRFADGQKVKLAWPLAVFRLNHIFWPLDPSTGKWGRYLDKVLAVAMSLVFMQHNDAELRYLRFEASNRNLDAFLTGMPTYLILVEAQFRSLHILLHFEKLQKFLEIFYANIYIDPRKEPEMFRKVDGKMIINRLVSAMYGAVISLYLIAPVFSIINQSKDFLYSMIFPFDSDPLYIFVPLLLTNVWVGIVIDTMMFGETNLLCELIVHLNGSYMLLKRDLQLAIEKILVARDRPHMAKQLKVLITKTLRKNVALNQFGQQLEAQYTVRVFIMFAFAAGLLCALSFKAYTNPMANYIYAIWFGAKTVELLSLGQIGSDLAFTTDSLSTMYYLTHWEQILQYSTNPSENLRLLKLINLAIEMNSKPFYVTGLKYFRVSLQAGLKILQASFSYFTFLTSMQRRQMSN
Description: (§1) Liposomes were prepared using a phospholipid solution produced by evaporating solutions containing: phosphatidylethanolamine (PE), phosphatidylserine (PS), phosphatidylcholine (PC), and cholesterol (CH) at a molar ratio of 5:3:3:1 in a small glass tube under a stream of N2 gas, then desiccating under vacuum for 1 h. […] To promote the formation of liposomes, 10 freeze/thaw steps were performed by transferring the tube from liquid nitrogen to a 40° C. water bath. Liposomes were then sized by passing the lipid solution 11 times through a 100-nm polycarbonate membrane using an Avestin LiposoFAST extruder unit (Avestin, Germany). Glycerol was added at 10% of the final volume and aliquots at 10 mg/mL were snap frozen in liquid nitrogen and stored at -80° C. Prior to their use, liposomes were defrosted on ice and then destabilized by incubating with 0.2% CHAPS for 15 min at room temperature. Then 200 μg of purified odorant receptor^14 was added to 1 mg of liposomes and rotated at 10 rpm for 1 h at room temperature. […] The Bio-Beads were removed after each incubation period. The OR integrated liposomes were pelleted by centrifugation at 100,000 g for 1 h, and were resuspended in 500 μL of rehydration buffer. Integration of OrXs into liposomes was assessed by density gradient ultracentrifugation (DGU) using Accudenz (Accurate Chemical & Scientific Corporation, USA). […] The sample was then centrifuged at 100,000 g for 4 h at 4° C. Liposomes will float to the top of the gradient after Accudenz DGU due to their low density. 1.3 Electrode Cleaning Gold disk (2 mm) electrodes were cleaned with polishing with Alumina paste for 2 minutes, ultra-sonicated in pure ethanol and then Milli-Q water for 5 minutes each. […] Charge transfer resistance (Rct) of electrodes were calculated by fitting obtained data to a Randles' equivalent circuit [Rs+CPE/(Rct+W)] comprising of a solution resistance (Rs) in series with a constant phase element (CPE) and in parallel with charge transfer resistance (Rct) and Warburg diffusion element. […]

Or10a = biological target: T2, Or10a (Drosophila melanogaster, UniProt Q9VYZ1); experiment: EIS sensor, Or10a liposomes on gold electrode (Example 1); format: binding; conditions: Or10a liposomes, EIS
T2 sequence (Q9VYZ1 1-406): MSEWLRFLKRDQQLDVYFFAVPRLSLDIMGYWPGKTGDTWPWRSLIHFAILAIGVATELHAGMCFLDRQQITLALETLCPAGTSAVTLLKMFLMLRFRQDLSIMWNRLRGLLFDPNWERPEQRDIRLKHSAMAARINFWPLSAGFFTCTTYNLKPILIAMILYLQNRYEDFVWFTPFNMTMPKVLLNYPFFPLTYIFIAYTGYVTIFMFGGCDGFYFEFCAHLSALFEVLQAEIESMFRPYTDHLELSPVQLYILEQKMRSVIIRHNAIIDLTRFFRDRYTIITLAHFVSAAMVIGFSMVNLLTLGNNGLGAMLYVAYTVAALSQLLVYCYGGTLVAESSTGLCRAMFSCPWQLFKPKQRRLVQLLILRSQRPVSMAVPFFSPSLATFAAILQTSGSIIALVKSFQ
Description: as §1

| SMILES | EC50 (OR35a) [nM] | Sensitivity limit (lowest detectable concentration) (OR35a; signal/noise >3) [pM] | EC50 (Or10a) [nM] | Sensitivity limit (lowest detectable concentration) (Or10a; signal/noise >3) [pM] |
| --- | --- | --- | --- | --- |
| CCC/C=C/C=O [E2-hexenal] | ~10 | 36 | – | – |
| COC(=O)c1ccccc1O [methyl salicylate] | – | – | ~1 | 330 |
